Measured values: US20210009542A1 (Calico Life Sciences LLC, priority 2018, published 2021)
Like-named read-outs stand apart in the source and are kept apart here.

Assays:
[1] = test system: B16F10 mouse melanoma cells; assay: B16F10 IFNγ-induced cellular growth inhibition assay; type: cell-based; conditions: Mus musculus, B16-F10, 33 μM compound
Method in brief: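 Live-cell imaging of confluence every 6 h over 5 days at 37 °C tracked growth of mouse B16F10 melanoma cells seeded overnight at 500/well. Semi-log compound series (final 100–0.001 μM, 0.1% DMSO) ran in both arms, ±IFNγ at 0.5 ng/mL final; inhibition taken relative to DMSO plus IFNγ when IFNγ-free DMSO wells passed 95% confluence.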

[2] = target: T1, His tagged PTPN2 (TC45) protein (Homo sapiens, UniProt P17706); assay: Mobility shift assay (MSA) for potency of PTPN2 inhibitors; type: biochemical; conditions: read-out: PTPN2 MSA IC50
T1 construct: made in house
T1 sequence (P17706 with tags, fused parts or gaps isoform P17706-2): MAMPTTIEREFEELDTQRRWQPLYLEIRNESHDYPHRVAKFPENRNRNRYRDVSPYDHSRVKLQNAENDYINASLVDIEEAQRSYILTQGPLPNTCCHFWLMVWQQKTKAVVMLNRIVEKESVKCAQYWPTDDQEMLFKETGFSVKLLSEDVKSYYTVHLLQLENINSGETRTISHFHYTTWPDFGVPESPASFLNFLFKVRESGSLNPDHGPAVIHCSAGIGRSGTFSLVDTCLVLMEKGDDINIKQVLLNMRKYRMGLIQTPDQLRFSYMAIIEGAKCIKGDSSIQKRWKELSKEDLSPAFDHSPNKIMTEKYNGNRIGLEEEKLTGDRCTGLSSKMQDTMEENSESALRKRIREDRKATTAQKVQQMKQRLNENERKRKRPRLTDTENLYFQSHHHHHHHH
Method in brief: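 IC50 values were derived from % inhibition of substrate conversion, measured by microfluidic mobility shift (ex 488/em 530) after quenching. The fluorescent phosphotyrosine insulin-receptor peptide ([…]) reacted for 10 min at room temperature with 0.5 nM His-tagged TC45 PTPN2 that had been preincubated 10 min with compound (12 points, 1:3). Buffer was HEPES pH 7.5 with EGTA, EDTA, Tween 20 and DTT.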

[3] = +0.5 ng/mL IFNγ, relative to DMSO control, read-out: % B16F10 growth inhibition (+0.5 ng/mL IFNγ) @ 33 μM
[4] = no IFNγ, read-out: % B16F10 growth inhibition (no IFNγ) @ 33 μM

SMILES | inhibition at 33 µM [1, 3] | inhibition at 33 µM [1, 4] | IC50 [2]
COC(C)(C)CCOc1ccc2cc(O)c(N3CC(=O)NS3(=O)=O)c(F)c2c1 [Compound 170, 5-[1-fluoro-3-hydroxy-7-(3-methoxy-3-methylbutoxy)naphthalen-2-yl]-1λ^6,2,5-thiadiazolidine-1,1,3-trione] | 60 to 90% | < 25% | < 1 nM
N#CCCCNc1ccc2cc(O)c(N3CC(=O)NS3(=O)=O)c(F)c2c1 [Compound 174, 4-{[8-fluoro-6-hydroxy-7-(1,1,4-trioxo-1λ^6,2,5-thiadiazolidin-2-yl)naphthalen-2-yl]amino}butanenitrile] | > 90% | < 25% | 1 to 10 nM
CC(C)(CN)CCOc1ccc2cc(O)c(N3CC(=O)NS3(=O)=O)c(F)c2c1 [Compound 176, 5-[7-(4-amino-3,3-dimethylbutoxy)-1-fluoro-3-hydroxynaphthalen-2-yl]-1λ^6,2,5-thiadiazolidine-1,1,3-trione] | > 90% | < 25% | 1 to 10 nM
O=C1CN(c2c(O)cc3ccc(NCCN4CCC4)cc3c2F)S(=O)(=O)N1 [Compound 177, 5-(7-{[2-(azetidin-1-yl)ethyl]amino}-1-fluoro-3-hydroxynaphthalen-2-yl)-1λ^6,2,5-thiadiazolidine-1,1,3-trione] | > 90% | < 25% | 1 to 10 nM
O=C1CN(c2c(O)cc3ccc(OC4CN(S(=O)(=O)C5CC5)C4)cc3c2F)S(=O)(=O)N1 [Compound 178, 5-(7-{[1-(cyclopropanesulfonyl)azetidin-3-yl]oxy}-1-fluoro-3-hydroxynaphthalen-2-yl)-1λ^6,2,5-thiadiazolidine-1,1,3-trione] | 60 to 90% | < 25% | 1 to 10 nM
COCCNc1ccc2cc(O)c(N3CC(=O)NS3(=O)=O)c(F)c2c1 [Compound 179, 5-{1-fluoro-3-hydroxy-7-[(2-methoxyethyl)amino]naphthalen-2-yl}-1λ^6,2,5-thiadiazolidine-1,1,3-trione] | > 90% | < 25% | 10 to 100 nM
O=C1CN(c2c(O)cc3ccc(OCCC(F)(F)F)cc3c2F)S(=O)(=O)N1 [Compound 180, 5-[1-fluoro-3-hydroxy-7-(3,3,3-trifluoropropoxy)naphthalen-2-yl]-1λ^6,2,5-thiadiazolidine-1,1,3-trione] | 60 to 90% | < 25% | 1 to 10 nM
N#CC1(CNc2ccc3cc(O)c(N4CC(=O)NS4(=O)=O)c(F)c3c2)CC1 [Compound 181, 1-({[8-fluoro-6-hydroxy-7-(1,1,4-trioxo-1λ^6,2,5-thiadiazolidin-2-yl)naphthalen-2-yl]amino}methyl)cyclopropane-1-carbonitrile] | 60 to 90% | < 25% | 1 to 10 nM
Nc1ccc(CS(=O)(=O)N2CC=C(c3ccc4cc(O)c(N5CC(=O)NS5(=O)=O)c(F)c4c3)C2)cc1 [Compound 184, 5-(7-{1-[(4-aminophenyl)methanesulfonyl]-2,5-dihydro-1H-pyrrol-3-yl}-1-fluoro-3-hydroxynaphthalen-2-yl)-1λ^6,2,5-thiadiazolidine-1,1,3-trione] | 25 to 59% | < 25% | < 1 nM
CC1(CCOc2ccc3cc(O)c(N4CC(=O)NS4(=O)=O)c(F)c3c2)CC1 [Compound 193, 5-{1-fluoro-3-hydroxy-7-[2-(1-methylcyclopropyl)ethoxy]naphthalen-2-yl}-1λ^6,2,5-thiadiazolidine-1,1,3-trione] | 25 to 59% | < 25% | < 1 nM
Nc1ccccc1CS(=O)(=O)N1CC=C(c2ccc3cc(O)c(N4CC(=O)NS4(=O)=O)c(F)c3c2)C1 [Compound 195, 5-(7-{1-[(2-aminophenyl)methanesulfonyl]-2,5-dihydro-1H-pyrrol-3-yl}-1-fluoro-3-hydroxynaphthalen-2-yl)-1λ^6,2,5-thiadiazolidine-1,1,3-trione] | 60 to 90% | < 25% | < 1 nM
